Patent US7960382B2, “Compounds and their use related to compositions for treating disease” (Allergan, Inc., priority 2005, dated 2011)

Legend:
[1] = Formation of the compound in a brimonidine tartrate / timolol maleate composition stored at ambient temperature (age of composition); type: physicochemical; conditions: for Compound Concentration (% weight/vol): composition initially 0.2% brimonidine tartrate and 0.68% timolol maleate, pH 6.9, ambient temperature
Protocol: The compound disclosed herein can also be used to estimate the age of a composition, stored at ambient temperature, initially comprising brimonidine tartrate and timolol maleate of known amounts and having a pH of 6.9. The age of the […] (λ) in months is determined by equation 3, where B^o, T^o, and C^o are the initial concentrations of brimonidine, timolol maleate, and the compound respectively, in % (w/v). λ=C^o/(1.1×10^−3(B^oT^o)) [eq. 3] Equation 3 is an approximation which assumes that B^o and T^o>>C^o. If that is not the case, the age is determined using the rate constant k=1.1×10^−3 month^−1%^−1 and the appropriate rate expression.
If the composition initially comprises 0.2% brimonidine tartrate and 0.68% timolol maleate. The age of the composition may be determined according to Table 2 below. Alternatively, up to about 36 months, the age is determined by multiplying the concentration of the compound in % (w/v) by 9100.

microbial attack [2] = test: Preservation of ophthalmic compositions from microbial attack; conditions: brimonidine/timolol compositions of the invention
Description: Ophthalmic products are typically packaged in multidose form. Preservatives are thus required to prevent microbial contamination during use. Suitable preservatives include: benzalkonium chloride, thimerosal, chlorobutanol, methyl paraben, propyl paraben, phenylethyl alcohol, edetate disodium, sorbic acid, Onamer M, or other agents known to those skilled in the art. In the prior art ophthalmic products, typically such preservatives are employed at a level of from 0.004% to 0.02%. In the compositions of the present application the preservative, preferably benzalkonium chloride, may be employed at a level of from 0.001% to less than 0.01%, e.g. from 0.001% to 0.008%, preferably about 0.005% by weight. […] This concentration may be advantageously compared to the requirement of 0.01% benzalkonium chloride to preserve timolol in the individual, commercially-available ophthalmic products.

microbial attack [3] = conditions: cited from earlier work

Question: For `O=C(O)C1CC(=O)N2CCN=C2N1c1ccc2nccnc2c1Br` (stereo not drawn) [Compound, 8-(5-bromoquinoxalin-6-yl)-5-oxo-2,3,5,6,7,8-hexahydroimidazo[1,2-a]pyrimidine-7-carboxylic acid], which “Compound Concentration (% weight/vol)” value ([1]; Age 1 month) is on record?
Answer: 0.0001 % weight/vol

Question: And the “Compound Concentration (% weight/vol)” value ([1]; Age 2 months)?
Answer: 0.0002 % weight/vol

Question: What about the “Compound Concentration (% weight/vol)” value ([1]; Age 3 months) of the same molecule?
Answer: 0.0003 % weight/vol

Question: What about the “Compound Concentration (% weight/vol)” value ([1]; Age 4 months) of the same molecule?
Answer: 0.0004 % weight/vol

Question: What about the “Compound Concentration (% weight/vol)” value ([1]; Age 5 months) of the same molecule?
Answer: 0.0006 % weight/vol

Question: What about the “Compound Concentration (% weight/vol)” value ([1]; Age 6 months) of the same molecule?
Answer: 0.0007 % weight/vol

Question: And the “Compound Concentration (% weight/vol)” value ([1]; Age 7 months)?
Answer: 0.0008 % weight/vol

Question: What about the “Compound Concentration (% weight/vol)” value ([1]; Age 8 months) of the same molecule?
Answer: 0.0009 % weight/vol

Question: What about the “Compound Concentration (% weight/vol)” value ([1]; Age 9 months) of the same molecule?
Answer: 0.001 % weight/vol

Question: And the “Compound Concentration (% weight/vol)” value ([1]; Age 10 months)?
Answer: 0.0011 % weight/vol

Question: And the “Compound Concentration (% weight/vol)” value ([1]; Age 11 months)?
Answer: 0.0012 % weight/vol

Question: What about the “Compound Concentration (% weight/vol)” value ([1]; Age 12 months) of the same molecule?
Answer: 0.0013 % weight/vol

Question: What about the “Compound Concentration (% weight/vol)” value ([1]; Age 13 months) of the same molecule?
Answer: 0.0014 % weight/vol

Question: What about the “Compound Concentration (% weight/vol)” value ([1]; Age 14 months) of the same molecule?
Answer: 0.0016 % weight/vol

Question: And the “Compound Concentration (% weight/vol)” value ([1]; Age 15 months)?
Answer: 0.0017 % weight/vol

Question: What about the “Compound Concentration (% weight/vol)” value ([1]; Age 16 months) of the same molecule?
Answer: 0.0018 % weight/vol

Question: And the “Compound Concentration (% weight/vol)” value ([1]; Age 17 months)?
Answer: 0.0019 % weight/vol

Question: What about the “Compound Concentration (% weight/vol)” value ([1]; Age 18 months) of the same molecule?
Answer: 0.0020 % weight/vol

Question: And the “Compound Concentration (% weight/vol)” value ([1]; Age 19 months)?
Answer: 0.0021 % weight/vol

Question: And the “Compound Concentration (% weight/vol)” value ([1]; Age 20 months)?
Answer: 0.0022 % weight/vol

Question: And the “Compound Concentration (% weight/vol)” value ([1]; Age 21 months)?
Answer: 0.0023 % weight/vol

Question: What about the “Compound Concentration (% weight/vol)” value ([1]; Age 22 months) of the same molecule?
Answer: 0.0024 % weight/vol

Question: What about the “Compound Concentration (% weight/vol)” value ([1]; Age 23 months) of the same molecule?
Answer: 0.0026 % weight/vol

Question: And the “Compound Concentration (% weight/vol)” value ([1]; Age 24 months)?
Answer: 0.0027 % weight/vol

Question: What about the “rate constant k (formation of the compound from brimonidine tartrate and timolol maleate)” value ([1]; composition stored at ambient temperature, pH 6.9) of the same molecule?
Answer: 1.1×10^−3 month^−1%^−1

Question: What does the source list for benzalkonium chloride?
Answer: concentration sufficient to preserve the compositions of the present invention from microbial attack (microbial attack [2]): 0.005%; concentration required to preserve timolol in the individual, commercially-available ophthalmic products (microbial attack [3]): 0.01%
